Patent US12246022B2, “Compositions and methods for treating, preventing or reversing age associated inflammation and disorders” (BROWN UNIVERSITY, priority 2019, dated 2025)
Where two headings read alike, the source gives them in different places.

Experiments:
[1] = Comparative studies: intracellular drug concentration relative to LINE-1 IC50 and huCSF/Plasma ratio; conditions: Table 13 Comparative Studies
[2] = test system: human LINE-1; assay: Human LINE-1 retrotransposition assay, related experiments with islatravir (pYX017, HeLa cells, Tables 12 and 13); format: cell-based; conditions: Homo sapiens
Experimental: In related experiments, islatravir and other compounds were tested for inhibition of retrotransposition activity of human LINE-1 in HeLa cells according to the following procedure.
HeLa cervical cancer cells were cultivated at 37° C. in a humidified 5% CO2 incubator in Dulbecco's Modified Eagle's Medium (DMEM)—high glucose, with 4500 mg/L glucose, L-glutamine, sodium pyruvate and sodium bicarbonate (Sigma), supplemented with 10% of heat inactivated fetal bovine serum (Thermo Fisher).
Assays were performed using reporter plasmid pYX017 as described (Xie, et al., 2011) with several modifications. The reporter assay was performed in 96-well white optical bottom plates. HeLa cells were seeded in wells 24 h prior to transfection and compound treatment so that cells were approximately 30% confluent on the day of transfection. Different cell plating densities were tested and a density of 2×10^3 cells was determined to be optimal.
Compounds were resuspended in DMSO. Serial dilutions (1:3) were prepared in DMSO. Medium containing different concentrations of the compounds were prepared by adding 2 μl of the compound dilution to 1 ml of the culture medium. The final concentration of DMSO in the medium was 0.2%.
FuGENE® HD transfection reagent (Promega, E2311, Lot 382574 and Lot 397842) was used to transfect the plasmids into the cells. The transfection reagent: DNA mixture was prepared in OpiMEM (Thermo Fisher) according to manufacturer's instructions. Different ratios of transfection reagent to DNA were tested and a ratio of 3:1 was determined to be optimal. Culture medium was removed from the cells and discarded. The transfection reagent: DNA mixture (5 μl) was mixed with the compound containing medium (100 μl/well) and this was added onto the cells of each well. Cells were incubated at 37° C./5% CO2 for different incubation time. A 72 h incubation time was determined to be optimal.
Luciferase reporter activity was quantified with the Dual-Luciferase® Reporter Assay System (Promega) according to manufacturer's instructions for multiwell plates except that cells were lysed directly on the multiwell plate with 30 μl of the passive lysis buffer (PLB) for 20 min at room temperature, with gentle shaking to ensure complete cell lysis.
Firefly and Renilla luciferase signals were measured using a SpectraMax i3x Multi-Mode Microplate Reader. Integration times of 100 ms and 10 ms were used to measure the Firefly and Renilla signals respectively. Relative L1 activity is calculated as Firefly/Renilla *1000 or Firefly/Renilla *10,000. Dose response inhibition data were fit to a four parameter logistic equation using non-linear regression (using Graphpad Prism 8), to determine IC50 values for each inhibitor.

[3] = test system: IFN-I response; assay: IFN-I response in senescent and 3X human fibroblasts (RT-qPCR, ELISA, immunoblotting); format: cell-based
Excerpt: To obtain replicatively senescent (RS) cells, LF1 cultures were serially propagated until proliferation ceased. At each passage, after reaching 80% confluence cells were trypsinized and diluted 1:4. […] In early passage cultures, the time between passages is constant at approximately 3 days. […] At this point, after reaching 80% confluence, the cells were replated at 1:2 dilution, and this time was designated as the last passage (point A in FIG. 2A). […] Under this experimental regimen, the majority of the cells in the culture enter senescence within a 3-4 weeks window centered roughly around the time of last passage (grey bar in FIG. 2A). At point B (4 weeks), the cultures were trypsinized and replated as described^60 to eliminate a small fraction of persisting contact-inhibited cells. Cultures were again replated at point C (8 weeks).
Oncogene-induced senescence (OIS) was elicited by infecting proliferating LF1 cells with pLenti CMV RasV12 Neo (Addgene plasmid #22259). Generation of lentiviral particles and the infection procedure are described below. At the end of the infection, cells were reseeded at 15-20% confluency and selected with G418 (250 μg/ml) maintained continuously until the end of the experiment Medium was changed every 3 days until the cultures were harvested at the indicated time points. Stress-induced premature senescence (SIPS) was elicited by […] irradiation with 20 Gy given at a rate of 87 cGy/min in one fraction using a cesium-137 gamma source (Nordion Gammacell 40). Cells were 15-20% confluent at the time of irradiation. Medium was changed immediately after irradiation, and at 3-day intervals thereafter. […]
The ABI ViiA 7 instrument (Applied Biosystems) was used for all experiments. qPCR of DNA was performed using the TaqMan system (Applied Biosystems) as described by Coufal et al. (2009).^64 […] of purified genomic DNA was used with the indicated primers (see Table 1). […] Effectiveness of the DNase digestion was assessed using controls that omitted the RT enzyme. […]

[4] = HeLa, Table 13 Comparative Studies, read-out: Human Line-1 IC50

Structure (SMILES) | Human Line-1 Intracellular drug conc. (% of IC-50 conc.) [1] [%] | IC50 [2, 4] [nM] | interferon gene expression (IFN-α, IFN-β1) ([3]; LF1, 50 μM, drug for 1 month from 3 months in senescence) | IC50 ([2]; HeLa cells, pYX017, 72 h, n = 3, read-out: Human LINE-1 IC50, Average) [nM] | IC50 ([2]; HeLa cells, pYX017, 72 h, read-out: Human LINE-1 IC50, Exp.1) [nM] | IC50 ([2]; HeLa cells, pYX017, 72 h, read-out: Human LINE-1 IC50, Exp.2) [nM] | concentration range that optimally inhibited the IFN-I response ([3]; senescent cells) [µM]
Nc1nc(=O)n([C@@H]2CS[C@H](CO)O2)cc1F [Emtricitabine] | 67 | 1340 | decreased the expression of interferons | – | – | – | –
Nc1ccn([C@@H]2CS[C@H](CO)O2)c(=O)n1 [Lamivudine] | 9 | 640 | – | 800 | 900 | 700 | 7.5 to 10
